For assay [1], the system named is Mycobacterium tuberculosis. Put plainly: Antitubercular activity against Mycobacterium tuberculosis H37Ra by green fluorescent protein microplate assay. Type of assay: functional.
The next assay relates to Vero. Put plainly: Cytotoxicity against African green monkey Vero cells by green fluorescent protein-based assay. Type of assay: cell-based. The settings on record: Chlorocebus sabaeus.
In a further assay the test system is Plasmodium falciparum. Put plainly: Antimalarial activity against Plasmodium falcipuram K1 by microculture radioistope technique. Type of assay: functional, organism-based.

Converted amounts (≈) assume the structure as drawn. Some results are limits rather than exact numbers.

In assay [1], `CC(=O)O[C@@H](C/C=C(/C)C(=O)O)[C@@H](C)[C@H]1CC[C@@]2(C)C3=C(C=C4C=CC(=O)OC(C)(C)[C@@H]4CC3)CC[C@]12C` yielded an MIC of over 50 µg/mL. The IC50 in the assay with Vero is 49.2 µg/mL (≈ 93.8 µM); in the assay with Plasmodium falciparum, 0.03 µg/mL (≈ 0.0572 µM).
Turning to `Cl.O[C@@H](c1cc(C(F)(F)F)nc2c(C(F)(F)F)cccc12)[C@H]1CCCCN1`, the IC50 in the assay with Plasmodium falciparum is over 10 µg/mL.
Consider `Cc1c2ccncc2c(C)c2c1[nH]c1ccccc12` [ELLIPTECINE], for which, in the assay on Vero, the concentration for half-maximal inhibition (IC50) was 0.87 µg/mL (≈ 3.53 µM).
The compound `CC1=CC[C@@H]([C@@H](C)[C@H]2CC[C@@]3(C)C4=C(CC[C@]23C)[C@@]2(C)CCC(=O)C(C)(C)[C@@H]2CC4)OC1=O` returned an MIC in assay [1] of over 50 µg/mL. Also, the IC50 with Vero was over 50 µg/mL; in the assay on Plasmodium falciparum, 3.6 µg/mL (≈ 7.95 µM).
In the case of `CC(=O)O[C@@H](C/C=C(/C)C(=O)O)[C@@H](C)[C@H]1CC[C@@]2(C)C3=CC[C@@H](C(C)(C)OC(C)=O)[C@]4(CCC(=O)OC4)C3=CC[C@]12C`, in assay [1], the MIC was over 50 µg/mL. Further, the 50% inhibitory concentration (IC50) in the assay on Vero was over 50 µg/mL; with Plasmodium falciparum, 5.8 µg/mL (≈ 9.92 µM).
Compound `CC(=O)OC[C@]12CCC(=O)OC(C)(C)[C@@H]1CCC1=C2CC[C@]2(C)[C@@H]([C@H](C)[C@H](C/C=C(/C)C(=O)O)OC(C)=O)CC[C@@]12C` yielded an MIC in assay [1] of over 50 µg/mL. The IC50 in the assay with Vero is over 50 µg/mL; with Plasmodium falciparum it was over 10 µg/mL.
As for `CC(=O)OC[C@@]1(CCC(=O)O)C2=C(CC[C@H]1C(C)(C)O)[C@]1(C)CC[C@H]([C@H](C)[C@@H]3CC=C(C)C(=O)O3)[C@@]1(C)CC2`, it took 25 µg/mL (≈ 45.9 µM) to inhibit growth in assay [1] (MIC). For the same compound, the IC50 was over 50 µg/mL in the assay with Vero and 8.2 µg/mL (≈ 15.1 µM) in the assay on Plasmodium falciparum.
Compound `C[C@H]1[C@@H](O)O[C@@H]2O[C@@]3(C)CC[C@H]4[C@H](C)CC[C@@H]1[C@@]24OO3` [ARTENIMOL] showed an IC50 in the assay on Plasmodium falciparum of over 10 µg/mL.
For the compound `CC(=O)OC[C@@]1(CCC(=O)O)C2=C(CC[C@H]1C(C)(C)O)[C@]1(C)CC[C@H]([C@H](C)[C@H]3OC(=O)C(C)=C[C@@H]3O)[C@@]1(C)CC2`, the minimal inhibitory concentration (MIC) in assay [1] is over 50 µg/mL. Moreover, the IC50 with Vero was over 50 µg/mL; with Plasmodium falciparum it was 5 µg/mL (≈ 8.92 µM).
As for `CC(=O)O[C@@H]1C[C@H]([C@H](C)[C@@H]2CC=C(C)C(=O)O2)[C@@]2(C)CCC3=C(CC[C@H]4C(C)(C)OC(=O)C=C[C@]45C[C@H]35)[C@]12C`, 25 µg/mL (≈ 46.6 µM) was the least that counted as inhibitory in assay [1] (MIC). Besides, the IC50 in the assay with Vero is 8.5 µg/mL (≈ 15.8 µM); in the assay on Plasmodium falciparum, 0.001 µg/mL (≈ 0.00186 µM).
With `NNC(=O)c1ccncc1` [ISONIAZID], the MIC in assay [1] turned out to be 0.047 µg/mL (≈ 0.343 µM).
Turning to `CC1=CC[C@@H]([C@@H](C)[C@H]2CC[C@@]3(C)C4=C(CC[C@]23C)[C@]23CC[C@H](OC2=O)C(C)(C)[C@@H]3CC4)OC1=O`, the MIC in assay [1] is over 50 µg/mL. For the same compound, the values for the IC50 in the assay on Vero and in the assay with Plasmodium falciparum were over 50 µg/mL and over 10 µg/mL, respectively.
The compound `CC(=O)OC[C@@]1(CCC(=O)O)C2=CC[C@]3(C)[C@@H]([C@H](C)[C@H](C/C=C(/C)C(=O)O)OC(C)=O)CC[C@@]3(C)C2=CC[C@H]1C(C)(C)O` returned a minimum inhibitory concentration (MIC) in assay [1] of over 50 µg/mL. Moreover, the 50% inhibitory concentration (IC50) in the assay with Vero was over 50 µg/mL; in the assay with Plasmodium falciparum it was 1.4 µg/mL (≈ 2.32 µM).
In the case of `CC(=O)OC[C@@]1(CCC(=O)O)C2=C(CC[C@H]1C(C)(C)O)[C@]1(C)CC[C@H]([C@H](C)[C@H](C/C=C(/C)C(=O)O)OC(C)=O)[C@@]1(C)CC2`, in assay [1], the minimum inhibitory concentration (MIC) was over 50 µg/mL. The figures for the IC50 in the assay on Vero and in the assay with Plasmodium falciparum were over 50 µg/mL and over 10 µg/mL, respectively.
In assay [1], `CC(=O)OC[C@]12CC[C@H](O)C(C)(C)[C@@H]1CCC1=C2CC[C@]2(C)[C@@H]([C@H](C)[C@H](C/C=C(/C)C(=O)O)OC(C)=O)CC[C@@]12C` showed an MIC of over 50 µg/mL. In addition, the IC50 in the assay on Vero is over 50 µg/mL; in the assay with Plasmodium falciparum it was over 10 µg/mL.
`CC(=O)OC[C@]12CCC(=O)OC(C)(C)[C@@H]1CC=C1C2=CC[C@]2(C)[C@@H]([C@H](C)[C@H](C/C=C(/C)C(=O)O)OC(C)=O)CC[C@@]12C` yielded a minimum inhibitory concentration (MIC) in assay [1] of over 50 µg/mL. The values for the IC50 in the assay on Vero and in the assay on Plasmodium falciparum were over 50 µg/mL and over 10 µg/mL, respectively.

As a reminder, the MIC is the least concentration at which growth counts as inhibited. Usually IC50 stands for the concentration at which inhibition is half-maximal.
